Reference: patent publication US20240025922A1, “TETRAHYDROPYRIDO[3,4-d]PYRIMIDINES AS HPK1 INHIBITORS” (Merck Patent GmbH, priority 2022, published 2024)

Assays:
[1] = target: HPK1 (SLP76 phosphorylation at Ser376 in Jurkat and EL-4 cells) (Homo sapiens, UniProt Q92918); assay type: cell-based; details: αCD3/αCD28 Dynabeads stimulated cells, pSLP76 (Ser376) detection; read-out: HPK1 pSLP76 IC50
Method: Cellular Assay—Phospho-SLP-76 (Ser376).
Inhibition of HPK1 enzymatic activity in cells was determined by detection of SLP76 phosphorylation at Ser376 residue in lysate from Jurkat (human) and EL-4 (mouse) cells. Jurkat and EL-4 cells express both HPK1 and SLP76 naturally. All cells were cultured in RPMI 1640 media containing 10% heat inactivated fetal bovine serum (FBS) and 1×Penicillin-Streptomycin. In either Jurkat or El-4 assay, cells were pre-incubated with test compounds prior to T cell stimulation by respective αCD3/αCD28 Dynabeads™. For detection, plates were read on the Envision and percent inhibition and IC50 were determined by Smart fit in Genedata Analyzer.
For Jurkat cells: 35 μL cell suspension were dispensed at a density of 30,000 cells/well in 384-well plates containing HBSS (Gibco, 14025076)+0.1% BSA). 10-point logarithmic serial dilution of test compounds in DMSO were prepared by a Hamilton automated liquid handling robot and 35 nL was transferred into each well by an Echo liquid handler. After 60 min. pre-incubation, the cells were stimulated by adding 5 μL human T activator αCD3/αCD28 Dynabeads™ (Gibco, 11132D) at 1.2×107 beads/mL for 15 minutes at 37° C. Detection of Ser376 phosphorylation status was accomplished by first adding 10 μL of 5×AlphaLISA lysis buffer (Perkin Elmer, ALSU-PSLP-A500) to each well of the cell plate using a Multidrop Combi (5840300), followed by 20 minutes shaking. 10 μL cell lysate from each treatment were then transferred to a white 384-well plate (Corning 3572) and incubated with AlphaLISA acceptor beads for one hour (AlphaLISA SureFire Ultra p-SLP76(Ser376), Perkin Elmer, ALSU-PSLP-A500), and donor beads for additional 2 hours at room temperature in the dark.
For EL-4.IL2 assay, 50 μL cell suspension at 2×10^6 cells/mL in HBSS were first dispensed into 384-well plates and then 50 nL serial dilutions of test compounds were spotted to each well by an Echo liquid handler. After 60 min. incubation at 37° C., cells were stimulated by adding 5 μL mouse T cell activator αCD3/αCD28 Dynabeads™ (ThermFisher Scientific, 11452D) for 30 minutes at 37° C. After a brief spin and subsequent supernatant discarded, 12.5 μL of Cisbio lysis buffer were added to each well and plates were shaken for 30 min at 450 RPM. For detection, 4 μL prepared HTRF antibody mixture (Cisbio, 63ADK000U) in detection buffer were mixed with 16 μl of cell lysate and plates were incubated at room temperature for 19 hours prior to EnVision reading.

[2] = target: full-length human HPK1 (MAP4K1) (Homo sapiens (Human), UniProt Q92918); test: HPK1 Kinase Assay (Biochemical Assay), ADP-Glo; details: GST-HPK1 3.2 nM, 10 μM ATP, MBP substrate, read-out: HPK1 enzymatic IC50
How it was run: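 GST-tagged full-length human HPK1 was expressed in Sf21 cells and used at 3.2 nM in 50 mM HEPES pH 7.5, 10 mM MgCl2, 2 mM DTT, 12.5 mM O-glycerophosphate, 0.01% BSA and 0.02% Brij-35. It was preincubated 15 min with 10-point compound dilutions, and the reaction was started with a start mix of 10 μM ATP and 3.235 μM MBP. After 120 min, ADP was measured by ADP-Glo luminescence and IC50 derived.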

Sequence of HPK1 (SLP76 phosphorylation at Ser376 in Jurkat and EL-4 cells) (Q92918 whole entry, looked up): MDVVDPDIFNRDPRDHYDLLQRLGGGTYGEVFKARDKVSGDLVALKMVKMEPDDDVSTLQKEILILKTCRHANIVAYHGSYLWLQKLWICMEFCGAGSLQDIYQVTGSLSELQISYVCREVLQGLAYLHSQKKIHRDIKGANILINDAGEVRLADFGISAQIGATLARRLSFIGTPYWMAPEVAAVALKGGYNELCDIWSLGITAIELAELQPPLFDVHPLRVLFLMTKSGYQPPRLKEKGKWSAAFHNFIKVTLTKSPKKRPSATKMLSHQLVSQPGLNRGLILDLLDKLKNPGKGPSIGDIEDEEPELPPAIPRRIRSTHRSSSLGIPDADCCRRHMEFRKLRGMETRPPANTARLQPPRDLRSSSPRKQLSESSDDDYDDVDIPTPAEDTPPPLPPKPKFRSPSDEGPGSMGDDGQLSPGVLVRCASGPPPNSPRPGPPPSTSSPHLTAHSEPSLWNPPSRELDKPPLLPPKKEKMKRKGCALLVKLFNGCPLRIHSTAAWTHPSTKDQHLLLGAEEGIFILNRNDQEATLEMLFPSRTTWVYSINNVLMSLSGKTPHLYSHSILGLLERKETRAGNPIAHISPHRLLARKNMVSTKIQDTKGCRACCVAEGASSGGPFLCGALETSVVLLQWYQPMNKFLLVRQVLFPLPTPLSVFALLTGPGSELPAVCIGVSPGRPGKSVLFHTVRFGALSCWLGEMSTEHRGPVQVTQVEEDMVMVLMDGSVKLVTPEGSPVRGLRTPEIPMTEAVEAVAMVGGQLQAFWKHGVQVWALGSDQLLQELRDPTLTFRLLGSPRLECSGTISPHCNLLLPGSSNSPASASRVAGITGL
Sequence of full-length human HPK1 (MAP4K1) (Q92918 whole entry): as the sequence (Q92918 whole entry, looked up) above

SMILES	IC50 [1] [nM]	IC50 [2] [nM]
Cc1c(N2CCc3cnc(Nc4ccc(Cn5cccn5)cc4)nc3C2)cnc2c1NCCO2 [Example 187, 7-{8-methyl-1H,2H,3H-pyrido[2,3-b][1,4]oxazin-7-yl}-N-{4-[(1H-pyrazol-1-yl)methyl]phenyl}-5H,6H,7H,8H-pyrido[3,4-d]pyrimidin-2-amine]	< 500	< 100
Cc1c(N2CCc3cnc(Nc4ccc5c(c4)CCOC5)nc3C2)cnc2c1NCCO2 [Example 84, N-(isochroman-6-yl)-7-(8-methyl-2,3-dihydro-1H-pyrido[2,3-b][1,4]oxazin-7-yl)-5,6,7,8-tetrahydropyrido[3,4-d]pyrimidin-2-amine]	< 500	< 100
CN1CCc2cc(Nc3cc4c(cn3)CCN(c3cnc5c(c3Cl)NCCO5)C4)nn2CC1=O [Example 37, 2-[(6-{8-chloro-1H,2H,3H-pyrido[2,3-b][1,4]oxazin-7-yl}-5,6,7,8-tetrahydro-2,6-naphthyridin-3-yl)amino]-6-methyl-4H,5H,6H,7H,8H-pyrazolo[1,5-d][1,4]diazepin-7-one]	500 to 1000	< 100
Cc1c(N2CCc3cnc(Nc4ccc(Cn5cncn5)cc4)cc3C2)cnc2c1NCCO2 [Example 144, 6-{8-methyl-1H,2H,3H-pyrido[2,3-b][1,4]oxazin-7-yl}-N-{4-[(1H-1,2,4-triazol-1-yl)methyl]phenyl}-5,6,7,8-tetrahydro-2,6-naphthyridin-3-amine]	< 500	< 100
Cc1c(N2CCc3cnc(Nc4ccc(CC(=O)N5CC(N6CCOCC6)C5)cc4)nc3C2)cnc2c1NCCO2 [Example 165, 2-{4-[(7-{8-methyl-1H,2H,3H-pyrido[2,3-b][1,4]oxazin-7-yl}-5H,6H,7H,8H-pyrido[3,4-d]pyrimidin-2-yl)amino]phenyl}-1-[3-(morpholin-4-yl)azetidin-1-yl]ethan-1-one]	< 500	< 100
Cc1c(N2CCc3cnc(Nc4ccc(NCCN(C)C)c(F)c4)cc3C2)cnc2c1NCCO2 [Example 124, N1-(2-(dimethylamino)ethyl)-2-fluoro-N4-(6-(8-methyl-2,3-dihydro-1H-pyrido[2,3-b][1,4]oxazin-7-yl)-5,6,7,8-tetrahydro-2,6-naphthyridin-3-yl)benzene-1,4-diamine]	500 to 1000	< 100
CNCc1ccc(Nc2ncc3c(n2)CN(c2cnc4c(c2C)NCCO4)CC3)cc1 [Example 53, 7-(8-methyl-2,3-dihydro-1H-pyrido[2,3-b][1,4]oxazin-7-yl)-N-(4-((methylamino)methyl)phenyl)-5,6,7,8-tetrahydropyrido[3,4-d]pyrimidin-2-amine]	500 to 1000	< 100
Cc1c(N2CCc3cnc(Nc4ccc(CS(=O)(=O)N(C)C)cc4)cc3C2)cnc2c1NCCO2 [Example 150, N,N-dimethyl-1-{4-[(6-{8-methyl-1H,2H,3H-pyrido[2,3-b][1,4]oxazin-7-yl}-5,6,7,8-tetrahydro-2,6-naphthyridin-3-yl)amino]phenyl}methanesulfonamide]	< 500	< 100
Cc1c(N2CCc3cnc(Nc4ccc(CS(C)(=O)=O)c(F)c4)nc3C2)cnc2c1NCCO2 [Example 190, N-[3-fluoro-4-(methanesulfonylmethyl)phenyl]-7-{8-methyl-1H,2H,3H-pyrido[2,3-b][1,4]oxazin-7-yl}-5H,6H,7H,8H-pyrido[3,4-d]pyrimidin-2-amine]	< 500	< 100
Cc1c(N2CCc3cnc(Nc4ccc5c(c4)CN(CC(C)(C)O)C5)nc3C2)cnc2c1NCCO2 [Example 30, 2-methyl-1-{5-[(7-{8-methyl-1H,2H,3H-pyrido[2,3-b][1,4]oxazin-7-yl}-5H,6H,7H,8H-pyrido[3,4-d]pyrimidin-2-yl)amino]-2,3-dihydro-1H-isoindol-2-yl}propan-2-ol]	< 500	< 100
Cc1c(N2CCc3cnc(Nc4ccc5c(c4)CNC5=O)nc3C2)cnc2c1NCCO2 [Example 85, 5-((7-(8-methyl-2,3-dihydro-1H-pyrido[2,3-b][1,4]oxazin-7-yl)-5,6,7,8-tetrahydropyrido[3,4-d]pyrimidin-2-yl)amino)isoindolin-1-one]	> 1000	< 100
